Assays:
[1] = tested on: NC/Nga mice; assay: Therapeutic study in DNCB-induced atopic dermatitis NC/Nga mice (treatment days 8-14); assay type: in vivo, mouse
Description: (§1) Atopic dermatitis (AD) was induced in specific pathogen-free (SPF) female NC/Nga mice (n=8/group), 8-12 weeks old, by repeated percutaneous applications of dinitrochlorobenzene (DNCB) to the dorsal skin of the ears and back on days 4, 7, 10, and 13. NC/Nga mice are an established mouse model for atopic dermatitis. See Suto et al. NC/Nga mice: a mouse model for atopic dermatitis; Int Arch Allergy Immunol. 1999; 120 Suppl 1:70-5; and Gao et al., Establishment of allergic dermatitis in NC/Nga mice as a model for severe atopic dermatitis, Biol. Pharm. Bull. 2004 September; 27(9): 1376-81.
(§2) A prophylactic study and a therapeutic study was conducted: • 1. Prophylactic study: 0.2% formulation (C1), 0.5% formulation (C2), RVT-501 placebo, tacrolimus placebo, 0.1% tacrolimus, or no treatment (AD control) on days 1-14 or sham-induction of AD. • 2. Therapeutic study: 0.2% formulation (C1), 0.5% formulation (C2), active ingredient placebo, tacrolimus placebo, 0.1% tacrolimus, or no treatment (AD control) on days 8-14.
(§3) Scratching assays were performed on days 2, 8, 11, 14 in both studies. Skin samples were harvested for histopathology and cytokine analysis on day 15. Histopathology of sham-induced versus DNCB-induced mouse skin indicates clear presence of atopic dermatitis.

[2] = tested on: NC/Nga mice; assay: Prophylactic study in DNCB-induced atopic dermatitis NC/Nga mice (treatment days 1-14); assay type: in vivo, mouse; conditions: skin sections day 15
Description: as §1, §2, §3

## C=CC[C@@H]1/C=C(\C)C[C@H](C)C[C@H](OC)[C@H]2O[C@@](O)(C(=O)C(=O)N3CCCC[C@H]3C(=O)O[C@H](/C(C)=C/[C@@H]3CC[C@@H](O)[C@H](OC)C3)[C@H](C)[C@@H](O)CC1=O)[C@H](C)C[C@@H]2OC [0.1% tacrolimus, tacrolimus]
[1]; day 14
  scratching: significant decrease in scratching
[1]; day 15
  IL-1α, IL-1β, IL-4, IL-5, IL-10, IL-12(p40), IL-13, eotaxin, GM-CSF, KC, MCP-1, MIP-1α, MIP-1β, RANTES, and TNF-α in skin: significantly decreased
[1]; skin sections day 15
  AD lesion severity: trended toward a reduction
[2]
  AD lesions induced by DNCB at the microscopic level: attenuated AD lesions

Reference: patent US20210093637A1, “TOPICAL OINTMENT FORMULATIONS OF PDE-4 INHIBITOR AND THEIR USE IN TREATING SKIN CONDITIONS” (Dermavant Sciences GmbH, priority 2017, published 2021)
